The source of these data is patent US20080008669A1, “Photostable sunscreen compositions comprising cinnamate ester UV-B filters and s-triazine compounds” (L'OREAL, priority 2006, published 2008).

The data set in a line: Measurement of photostability of the cinnamate UV-B filter in emulsion formulas on PMMA plates under SUN TEST xenon lamp. The data set is classed as physicochemical. The conditions noted are these: Formulas 9-11 (1-4% of Example 1) compared with control Formula 8.

For `CCCCOC(=O)c1ccc(Nc2nc(Nc3ccc(C=C(C(=O)OCC(C)(C)C)C(=O)OCC(C)(C)C)cc3)nc(Nc3ccc(C=C(C(=O)OCC(C)(C)C)C(=O)OCC(C)(C)C)cc3)n2)cc1` [Example 1, 2,4-bis-(dineopentyl 4′-aminobenzalmalonate)-6-(butyl 4″-aminobenzoate)-s-triazine], the “Photostability of the cinnamate ester in the presence of the compound” value is reported as “improvement in the photostability of the cinnamate ester is clearly seen”.
